Patent publication US20100113436A1, “DISPIRO TETRAOXANE COMPOUNDS AND THEIR USE IN THE TREATMENT OF MALARIA AND/OR CANCER” (priority 2006, published 2010)
Where “and” joins values, the source holds several entries; their conditions need not be identical. Equal entries are not always repeated. Where two headings read alike, the source gives them in different places. Marks after values point to notes of the source that are not given here.

What was measured:
[1] = system: Plasmodium falciparum DD2; assay: In vitro analysis versus strains of Plasmodium falciparum: DD2; type: cell-based
[2] = system: Plasmodium falciparum PH3; assay: In vitro analysis versus strains of Plasmodium falciparum: PH3; type: cell-based
Plasmodium falciparum K1 = assay: In vitro analysis versus strains of Plasmodium falciparum: K1; type: cell-based; conditions: K1 strain
[3] = system: Plasmodium falciparum GC03; assay: In vitro analysis versus strains of Plasmodium falciparum: GC03; type: cell-based
[4] = system: Plasmodium falciparum V1S; assay: microbe, parasite or virus in culture; type: cell-based
[5] = system: Plasmodium falciparum TM4; assay: In vitro analysis versus strains of Plasmodium falciparum: TM4; type: cell-based
[6] = system: Plasmodium falciparum HB3; assay: In vitro analysis versus strains of Plasmodium falciparum: HB3; type: cell-based
P. berghei ANKA [7] = assay: In vivo dose response screening against P. berghei ANKA; design: species or system mice; conditions: for ED50: Plasmodium berghei
Experimental: Compound 29c, 29h and 291 were then subjected to dose response experiment against the P. berghei ANKA and the results are summarized in Table 7 below.

Plasmodium yoelli = assay: 4-day Peter's suppressive test; type: in vivo; conditions: 4-day Peter's test, mice
Experimental: Selections of the compounds were screened for in vivo activity. In vivo data (Table 6) was determined using 30 mg/kg oral (po) and subcutaneous (sc) doses in a 4-days Peter's test. For subcutaneous administration, compounds were dissolved in 10% dimethylsulfoxide (DMSO) 0.05% Tween 80 (Sigma, Dorset, UK) in distilled water. For oral administration, compounds were dissolved in standard suspending formula (SSV) [0.5% sodium carboxymethylcellulose, 0.5% benzyl alcohol, 0.4% Tween 80, 0.9% NaCl (all Sigma)]. Subcutaneous (s.c) or oral (p.o) treatment was done with 0.2 ml of a solution of the test compound two hours (day 0) and on days 1, 2, and 3 post infections. Parasitaemia was determined by microscopic examination of Giemsa stained blood films taken on day 4. Microscopic counts of blood films from each mouse were processed using MICROSOFT@EXCELL spreadsheet (Microsoft Corp.) and expressed as percentage of inhibition from the arithmetic mean parasitaemias of each group in relation to the untreated group.

[8] = system: 3D7 strain of Plasmodium falciparum; assay: In vitro antimalarial activity, 48-h [3H]-hypoxanthine incorporation assay; type: cell-based
Experimental: The 3D7 strain of Plasmodium falciparum was used in this study. This strain is known to be […] Parasites were maintained in continuous culture using the method of Jensen and Trager^4. […] Stock drug solutions were prepared in 100% dimethylsulphoxide (DMSO) and diluted to the appropriate concentration using complete medium. Assays were performed in sterile 96-well microlitre plates, each plate contained 200 μl of parasite culture (2% parasitemia, 0.5% haematocrit) with or without 10 μl drug dilutions. Each drug was tested in triplicate and parasite growth compared to control wells (which constituted 100% parasite growth). […] IC50 values were calculated by interpolation of the probit transformation of the log dose-response curve.

P. berghei ANKA [9] = assay: In vivo dose response screening against P. berghei ANKA; conditions: P. berghei ANKA infected mice, Table 9; for ED90: sigmoidal curve calculation
[10] = system: L6 Sketal muscle myoblast; assay: Cellular cytotoxicity screen, Resazurin reduction; type: cell-based, rat; conditions: for Theraputic Index (TI): ratio TOX 50 to IC50 against 3D7 P. falciparum
Excerpt: (§1) Values represent Tox 50 in μM. Cytotoxicity measured by Resazurin reduction.
(§2) Single full dose response curves generated using 10 independent drug concentrations. The 100 therapeutic index (TI) is the ration of the TOX 50 to the IC50 for the specific compound against the 3D7 P. falciparum isolate. The primary hepatocytes have demonstrable drug metabolising activity. The tetraoxane derivatives are remarkably non-toxic in these screens with in vitro TIs of between 5000 to 17000!.

[11] = system: H9c2(2-1) Myocardium, heart; assay: Cellular cytotoxicity screen, Resazurin reduction; type: cell-based, rat; conditions: H9c(2-1); for Theraputic Index (TI): ratio TOX 50 to IC50 against 3D7 P. falciparum
Excerpt: as §1, §2

[12] = system: HepG2 Human hepatocyte carcinoma; assay: Cellular cytotoxicity screen, Resazurin reduction; type: cell-based; conditions: Hep2G; for Theraputic Index (TI): ratio TOX 50 to IC50 against 3D7 P. falciparum
Excerpt: as §1, §2

Vero Kidney = assay: Cellular cytotoxicity screen, Resazurin reduction; type: cell-based, African green monkey, Cercopithecus aethiops; conditions: for Theraputic Index (TI): ratio TOX 50 to IC50 against 3D7 P. falciparum
Excerpt: as §1, §2

[13] = system: MRC-5 Embryonal lung, diploid; assay: Cellular cytotoxicity screen, Resazurin reduction; type: cell-based, Human; conditions: for Theraputic Index (TI): ratio TOX 50 to IC50 against 3D7 P. falciparum
Excerpt: as §1, §2

[14] = system: Salmonella typhimurium TA1535/pSK1002; assay: Salmonella typhimurium SOS/umu genotoxicity assay; conditions: for Max. Fold Increase / Potential genotox: −S9; for genotoxicity result in SOS/umu assay: both strains TA1535/pSK1002 and NM2009, highest concentration tested 50 μM, absence and presence of S-9 mix
Excerpt: (§3) This assay is based on the ability of DNA damaging agents to induce the expression of the umu operon. The Salmonella strains have a plasmid pSK1002 which carries an umuC-lacZ fused gene that produces a hybrid protein with β-galactosidase activity and whose expression is controlled by the umu regulatory region.

[15] = system: Salmonella typhimurium NM2009; assay: Salmonella typhimurium SOS/umu genotoxicity assay; conditions: for Max. Fold Increase / Potential genotox: −S9
Excerpt: as §3

[16] = Timed iron degradation stability, FeBr2 in THF; type: physicochemical; conditions: ferrous bromide/THF
Excerpt: The resulting residue was purified by flash column chromatography and the % recovery of starting endoperoxide calculated (Table 15).

[17] = Chloroquine Resistant Strains of the P. Berghei ANKA, Table 7
[18] = in Mus musculus, Chloroquine Resistant Strains of the P. Berghei ANKA, Table 7
[19] = 3D7, 3D7 strain, mean of triplicate results, Table 5, read-out: Mean IC50

## CCN(CC)Cc1cc(Nc2ccnc3cc(Cl)ccc23)ccc1O [AM, Amodiaquine, reference compound]
[1]; DD2 strain, read-out: IC50
  IC50: 6.1 nM
[2]; PH3 strain, read-out: IC50
  IC50: 4.7 nM
Plasmodium falciparum K1
  IC50: 10.2 nM
[3]; GC03 strain, read-out: IC50
  IC50: 4.5 nM
[4]
  IC50: 7.7 nM
[5]; TM4 strain, read-out: IC50
  IC50: 6.4 nM
[6]; HB3 strain, read-out: IC50
  IC50: 5.9 nM

## CO[C@H]1O[C@@H]2O[C@@]3(C)CC[C@H]4[C@H](C)CC[C@@H]([C@H]1C)[C@@]24OO3 [Artemether, artemether, reference compound]
P. berghei ANKA [7]; [17]
  ED90: 10.57 mg/kg
P. berghei ANKA [7]; [18]
  ED50: 5.88 mg/kg
Plasmodium yoelli
  Percentage of inhibition at 30 mg/kg (p.o): 100%
[8]; [19]
  IC50: 1.7 nM
[8]; 3D7, sulfonamide dispiro 1,2,4,5-tetraoxanes, Table 8, read-out: Mean IC50
  IC50: 3.2 nM

## C[C@H]1[C@H](OC(=O)CCC(=O)O)O[C@@H]2O[C@@]3(C)CC[C@H]4[C@H](C)CC[C@@H]1[C@@]24OO3 [Artesunate, artesunate]
[2]
  IC50: 0.9 nM
Plasmodium yoelli
  Percentage of inhibition at 30 mg/kg (p.o): 100%
P. berghei ANKA [9]
  ED50: 2.90 mg/kg
  ED90: 17.78 mg/kg and 16.67 mg/kg
P. berghei ANKA [9]; Plasmodium berghei, in Mus musculus
  ED50: 3.2 mg/kg

## CCN(CC)CCCC(C)Nc1ccnc2cc(Cl)ccc12 (stereo not drawn) [Chloroquine, reference compound]
[1]; DD2
  IC50: 80.5 nM
[2]
  IC50: 72 nM
[8]; 3D7, read-out: Mean IC50
  IC50: 8.5 nM
[3]
  IC50: 8.1 nM
[4]
  IC50: 83.7 nM
[5]
  IC50: 91.3 nM
[6]; HB3
  IC50: 6.6 nM

## COc1cccc2c1C(=O)c1c(O)c3c(c(O)c1C2=O)C[C@@](O)(C(=O)CO)C[C@@H]3O[C@H]1C[C@H](N)[C@H](O)[C@H](C)O1 [Doxorubicin]
[10]
  Tox 50: >5 µM
[11]
  Tox 50: 3 µM
[12]
  Tox 50: 0.3 µM
Vero Kidney
  Tox 50: >5 µM
[13]
  Tox 50: 2 µM

## Nc1ccc2cc3ccccc3cc2c1 [Tetraoxane 2Aan, 2-Aminoanthracene, reference compound]
[14]; positive controls
  MCE TA1535 (Maximum Co w/o effects on bacteria growth or β-galactosidase production): 5 µg/mL
[14]
  Max. Fold Increase: 1.10 ± 0.11 fold
  Potential genotox: NEG
[15]; in the presence of rat S9
  MCE NM2009 (Maximum Co w/o effects on bacteria growth or beta-galactosidase production): 0.31* μg/mL
[15]
  Max. Fold Increase: 1.08 ± 0.01 fold
  Potential genotox: NEG
physchem
  solubility: 5 µg/mL

## O=C(CC1CCC2(CC1)OOC1(CCCCC1)OO2)NC1CC1 [Tetraoxane 27c, N-Cyclopropyl-2-(7,8,15,16-tetraoxa-dispiro[5.2.5.2]hexadec-3-yl)-acetamide]
other
  melting point: 148 to 150 °C
Plasmodium yoelli
  Percentage of inhibition at 30 mg/kg (p.o): 24.8%

## O=C(CC1CCC2(CC1)OOC1(CCCCC1)OO2)N1CCOCC1 [Tetraoxane 27h, 1-Morpholin-4-yl-2-(7,8,15,16-tetraoxa-dispiro[5.2.5.2]hexadec-3-yl)-ethanone]
other
  melting point: 126 to 128 °C
Plasmodium yoelli
  Percentage of inhibition at 30 mg/kg (p.o): 33.0%
[8]; [19]
  IC50: 22.2 nM

## O=C(CC1CCC2(CC1)OOC1(OO2)C2CC3CC(C2)CC1C3)NC1CC1 (stereo not drawn) [Tetraoxane 29c, Adamantyl-N-Cyclopropyl tetraoxane acetamide]
P. berghei ANKA [7]; [17]
  ED90: 20.33 mg/kg
P. berghei ANKA [7]; [18]
  ED50: 10.3 mg/kg
other
  melting point: 140 to 142 °C
Plasmodium yoelli
  Percentage of inhibition at 30 mg/kg (p.o): 100%
[8]; [19]
  IC50: 2.3 nM

## O=C(CC1CCC2(CC1)OOC1(OO2)C2CC3CC(C2)CC1C3)N1CCOCC1 (stereo not drawn) [Tetraoxane 29h, Adamantly-1-Morpholin-4-yl tetraoxane acetamide]
[1]; DD2 strain, read-out: IC50
  IC50: 0.6 nM
[14]; Salmonella typhimurium
  MCE TA1535 (Maximum Co w/o effects on bacteria growth or β-galactosidase production): 50 µM
[14]
  genotoxicity result in SOS/umu assay: Negative
  Max. Fold Increase: 1.04 ± 0.04 fold
  Potential genotox: NEG
[15]; Salmonella typhimurium
  MCE NM2009 (Maximum Co w/o effects on bacteria growth or beta-galactosidase production): 50 µM
[15]
  Max. Fold Increase: 1.22 ± 0.03 fold
  Potential genotox: NEG
[2]; PH3 strain, read-out: IC50
  IC50: 0.3 nM
P. berghei ANKA [7]; [17]
  ED90: 3.88 mg/kg
P. berghei ANKA [7]; [18]
  ED50: 3.18 mg/kg
physchem
  solubility: 50 µM
other
  melting point: 139 to 140 °C
Plasmodium yoelli
  Percentage of inhibition at 30 mg/kg (p.o): 100%
[10]
  Tox 50: 23 µM
  Theraputic Index (TI): 7666
[11]
  Tox 50: >50 µM
  Theraputic Index (TI): >16666
Plasmodium falciparum K1
  IC50: 0.8 nM
[12]
  Tox 50: >50 µM
  Theraputic Index (TI): >16666
[8]; 3D7, read-out: Mean IC50
  IC50: 5.2 nM
[3]; GC03 strain, read-out: IC50
  IC50: 0.9 nM
Vero Kidney
  Tox 50: >50 µM
  Theraputic Index (TI): >16666
[5]; TM4 strain, read-out: IC50
  IC50: 0.6 nM
[6]; HB3 strain, read-out: IC50
  IC50: 1.4 nM
[13]
  Tox 50: >50 µM
  Theraputic Index (TI): >16666

## CN1CCN(C(=O)CC2CCC3(CC2)OOC2(OO3)C3CC4CC(C3)CC2C4)CC1 (stereo not drawn) [Tetraoxane 29l]
P. berghei ANKA [7]; [18]
  ED50: 2.7 mg/kg
Plasmodium yoelli
  Percentage of inhibition at 30 mg/kg (p.o): 100%
[8]; [19]
  IC50: 0.5 nM

## O=S(=O)(C1CC1)N1CCC2(CC1)OOC1(OO2)C2CC3CC(C2)CC1C3 [Tetraoxane 39d]
[14]; Salmonella typhimurium
  MCE TA1535 (Maximum Co w/o effects on bacteria growth or β-galactosidase production): 50 µM
[14]
  genotoxicity result in SOS/umu assay: Negative
  Max. Fold Increase: 1.05 ± 0.09 fold
  Potential genotox: NEG
[15]; Salmonella typhimurium
  MCE NM2009 (Maximum Co w/o effects on bacteria growth or beta-galactosidase production): 50 µM
[15]
  Max. Fold Increase: 1.09 ± 0.03 fold
  Potential genotox: NEG
P. berghei ANKA [7]; P. berghei ANKA infected mice, Table 9
  ED50: 7.93 mg/kg
physchem
  solubility: 50 µM
[10]
  Tox 50: >50 µM
  Theraputic Index (TI): >14285
[11]
  Tox 50: >50 µM
  Theraputic Index (TI): >14285
[12]
  Tox 50: >50 µM
  Theraputic Index (TI): >14285
[8]; 3D7, read-out: Mean IC50
  IC50: 3.52 nM
P. berghei ANKA [9]
  ED90: 49.77 mg/kg
Vero Kidney
  Tox 50: >50 µM
  Theraputic Index (TI): >14285
[13]
  Tox 50: >50 µM
  Theraputic Index (TI): >14285

## O=S(=O)(c1ccccc1)N1CCC2(CC1)OOC1(O2)C2CC3CC(C2)CC1C3 (stereo not drawn) [Tetraoxane 42]
[16]; after 4 h
  degradation: ~90%
[16]; after 48 h
  turnover: 100%

## O=S(=O)(c1ccccc1)N1CCC2(CC1)COC1(OO2)C2CC3CC(C2)CC1C3 (stereo not drawn) [Tetraoxane 43]
[16]; after 48 h
  degraded: 57%
